Data reported in ChEMBL document CHEMBL1909046, “DrugMatrix in vitro pharmacology data”.

Assays:
[1] = molecular target: Sodium-dependent dopamine transporter (Homo sapiens, UniProt Q01959); assay: DRUGMATRIX: Dopamine Transporter radioligand binding (ligand: [125I] RTI-55); assay type: cell membranes, CHO-K1, Membrane; conditions: Not Active = under 50% inhibition at 10 µM
[2] = molecular target: T1, 3-hydroxy-3-methylglutaryl-coenzyme A reductase (Homo sapiens, UniProt P04035); parameters: species or system Escherichia coli;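 also: enzyme inhibition assay of HMG-CoA reductase using radiolabeled [14C]HMG-CoA as substrate; in other assays of this panel Not Active means under 50% inhibition at 10 µM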
T1 sequence (P04035 whole entry): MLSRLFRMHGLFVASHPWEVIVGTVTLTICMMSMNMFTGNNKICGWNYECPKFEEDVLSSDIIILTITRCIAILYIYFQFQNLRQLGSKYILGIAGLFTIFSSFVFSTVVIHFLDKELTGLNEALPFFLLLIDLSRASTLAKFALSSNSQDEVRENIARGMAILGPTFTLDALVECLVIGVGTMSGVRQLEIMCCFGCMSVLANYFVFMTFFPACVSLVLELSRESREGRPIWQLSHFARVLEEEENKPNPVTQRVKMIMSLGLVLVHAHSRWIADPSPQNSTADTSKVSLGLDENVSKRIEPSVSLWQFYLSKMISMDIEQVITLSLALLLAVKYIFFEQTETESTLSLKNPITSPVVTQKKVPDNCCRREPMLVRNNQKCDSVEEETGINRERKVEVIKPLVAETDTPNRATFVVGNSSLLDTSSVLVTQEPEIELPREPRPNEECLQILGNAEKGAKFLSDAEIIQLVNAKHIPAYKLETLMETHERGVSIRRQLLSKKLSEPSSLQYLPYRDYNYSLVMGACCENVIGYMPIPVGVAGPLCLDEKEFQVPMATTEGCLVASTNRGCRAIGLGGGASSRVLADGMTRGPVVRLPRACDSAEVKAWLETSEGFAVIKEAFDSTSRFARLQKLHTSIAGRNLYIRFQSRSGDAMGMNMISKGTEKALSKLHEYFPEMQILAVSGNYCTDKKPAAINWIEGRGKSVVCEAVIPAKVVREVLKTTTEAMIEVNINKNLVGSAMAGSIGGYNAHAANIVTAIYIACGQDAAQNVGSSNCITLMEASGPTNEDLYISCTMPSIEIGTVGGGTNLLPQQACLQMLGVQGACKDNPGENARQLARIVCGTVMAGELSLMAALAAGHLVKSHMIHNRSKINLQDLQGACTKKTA

[3] = molecular target: Tyrosine-protein kinase Fyn (Homo sapiens, UniProt P06241); assay: biochemical; assay type: cell-based, Insect cells; conditions: insect cells;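 also: enzymatic inhibition of Fyn kinase activity measured with Poly(Glu:Tyr) as the phosphorylation substrate; in other assays of this panel Not Active means under 50% inhibition at 10 µM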
[4] = DRUGMATRIX: Phosphodiesterase PDE4 enzyme inhibition (substrate: [3H]cAMP + cAMP); conditions: u-937, Not Active = under 50% inhibition at 10 µM
[5] = DRUGMATRIX: Potassium Channel [KATP] radioligand binding (ligand: [3H] Glyburide); assay type: cell membranes, Membrane; conditions: hit-t15; Not Active = under 50% inhibition at 10 µM
[6] = DRUGMATRIX: Interleukin IL-1 radioligand binding (ligand: [125I] interleukin 1beta); assay type: cell membranes, Membrane; conditions: nih3t3; Not Active = under 50% inhibition at 10 µM
[7] = DRUGMATRIX: GABAA, Chloride Channel, TBOB radioligand binding (ligand: [3H] TBOB); assay type: cell membranes, Rattus norvegicus, Wistar, Cerebral cortex, Membrane; conditions: Not Active = under 50% inhibition at 10 µM

Sodium-dependent dopamine transporter, sequence (Q01959 whole entry): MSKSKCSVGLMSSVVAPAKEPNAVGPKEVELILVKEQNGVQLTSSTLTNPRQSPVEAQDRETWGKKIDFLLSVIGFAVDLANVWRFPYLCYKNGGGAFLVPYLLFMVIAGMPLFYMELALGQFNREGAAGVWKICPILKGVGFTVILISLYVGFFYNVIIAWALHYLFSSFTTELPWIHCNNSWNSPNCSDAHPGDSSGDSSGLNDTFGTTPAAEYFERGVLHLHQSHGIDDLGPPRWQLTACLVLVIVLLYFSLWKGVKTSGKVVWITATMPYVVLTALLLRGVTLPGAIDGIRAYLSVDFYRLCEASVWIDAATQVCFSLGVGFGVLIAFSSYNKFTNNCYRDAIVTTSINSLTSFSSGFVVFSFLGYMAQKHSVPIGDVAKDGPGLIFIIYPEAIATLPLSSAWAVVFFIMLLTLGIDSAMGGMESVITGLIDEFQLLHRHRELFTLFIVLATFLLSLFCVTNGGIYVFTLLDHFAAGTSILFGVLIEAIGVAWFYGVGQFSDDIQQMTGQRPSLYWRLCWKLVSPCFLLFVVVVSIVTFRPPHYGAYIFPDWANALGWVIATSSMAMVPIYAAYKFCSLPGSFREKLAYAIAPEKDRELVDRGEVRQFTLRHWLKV
Tyrosine-protein kinase Fyn, sequence (P06241 whole entry): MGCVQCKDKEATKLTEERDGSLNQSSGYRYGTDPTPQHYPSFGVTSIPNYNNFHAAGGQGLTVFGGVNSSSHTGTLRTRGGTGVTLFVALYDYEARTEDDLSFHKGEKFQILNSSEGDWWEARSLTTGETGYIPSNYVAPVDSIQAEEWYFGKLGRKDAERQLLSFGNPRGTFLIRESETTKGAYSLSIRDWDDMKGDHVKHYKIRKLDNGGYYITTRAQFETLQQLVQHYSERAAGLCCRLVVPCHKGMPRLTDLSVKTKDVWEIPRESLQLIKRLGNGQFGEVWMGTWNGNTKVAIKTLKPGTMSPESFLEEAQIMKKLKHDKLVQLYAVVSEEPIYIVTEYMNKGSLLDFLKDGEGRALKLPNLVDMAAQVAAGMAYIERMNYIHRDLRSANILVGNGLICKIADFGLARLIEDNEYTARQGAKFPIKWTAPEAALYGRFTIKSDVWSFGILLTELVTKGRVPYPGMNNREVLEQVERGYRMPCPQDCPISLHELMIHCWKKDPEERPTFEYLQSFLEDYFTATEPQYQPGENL

| Compound | IC50 ([1]; cho-k1) | IC50 [2] | IC50 [3] | IC50 [4] | Ki [4] | IC50 [5] | Ki [5] | IC50 [6] | Ki [6] | IC50 [7] | Ki [7] | IC50 ([1]; read-out: IC50) | Ki ([1]; read-out: Ki) | IC50 ([4]; read-out: IC50) |
| --- | --- | --- | --- | --- | --- | --- | --- | --- | --- | --- | --- | --- | --- | --- |
| Cc1cc2c(s1)Nc1ccccc1N=C2N1CCN(C)CC1 [OLANZAPINE] | Not Active | Not Active | Not Active | – | – | – | – | – | – | – | – | – | – | – |
| CC1(C)[C@H](C(=O)O)N2C(=O)C[C@H]2S1(=O)=O [SULBACTAM] | Not Active | Not Active | Not Active | Not Active | Not Active | Not Active | Not Active | Not Active | Not Active | Not Active | Not Active | – | – | – |
| Oc1ccc(/C=C/c2cc(O)cc(O)c2)cc1 [RESVERATROL] | Not Active | Not Active | Not Active | Not Active | Not Active | Not Active | Not Active | Not Active | Not Active | Not Active | Not Active | – | – | – |
| O=C1CC[C@@]2(O)[C@H]3Cc4ccc(O)c5c4[C@@]2(CCN3CC2CC2)[C@H]1O5 [NALTREXONE] | Not Active | Not Active | Not Active | Not Active | Not Active | Not Active | Not Active | Not Active | Not Active | Not Active | Not Active | – | – | – |
| Cc1nnc(NS(=O)(=O)c2ccc(N)cc2)s1 [SULFAMETHIZOLE] | Not Active | Not Active | Not Active | Not Active | Not Active | Not Active | Not Active | Not Active | Not Active | Not Active | Not Active | – | – | – |
| C=CCc1ccc2c(c1)OCO2 [SAFROLE] | Not Active | Not Active | Not Active | Not Active | Not Active | Not Active | Not Active | Not Active | Not Active | Not Active | Not Active | – | – | – |
| Cc1cn([C@H]2C=C[C@@H](CO)O2)c(=O)[nH]c1=O [STAVUDINE] | Not Active | Not Active | Not Active | Not Active | Not Active | Not Active | Not Active | Not Active | Not Active | Not Active | Not Active | – | – | – |
| CC1=C(/C=C/C(C)=C/C=C/C(C)=C/C(=O)O)C(C)(C)CCC1 [TRETINOIN] | Not Active | Not Active | Not Active | Not Active | Not Active | Not Active | Not Active | Not Active | Not Active | Not Active | Not Active | – | – | – |
| Nc1nc(N)c2nc(-c3ccccc3)c(N)nc2n1 | Not Active | Not Active | Not Active | Not Active | Not Active | Not Active | Not Active | Not Active | Not Active | Not Active | Not Active | – | – | – |
| CN1C(=O)OC(C)(C)C1=O [TRIMETHADIONE] | Not Active | Not Active | Not Active | Not Active | Not Active | Not Active | Not Active | Not Active | Not Active | Not Active | Not Active | – | – | – |
| Cc1ccc(S(=O)(=O)NC(=O)NN2CCCCCC2)cc1 [TOLAZAMIDE] | Not Active | Not Active | Not Active | Not Active | Not Active | Not Active | Not Active | Not Active | Not Active | Not Active | Not Active | – | – | – |
| O=C(O)c1cc(/N=N/c2ccc(S(=O)(=O)Nc3ccccn3)cc2)ccc1O [SULFASALAZINE] | Not Active | Not Active | Not Active | Not Active | Not Active | Not Active | Not Active | Not Active | Not Active | Not Active | Not Active | – | – | – |
| CCN(CC)C(=S)SSC(=S)N(CC)CC | – | Not Active | Not Active | – | – | Not Active | Not Active | Not Active | Not Active | Not Active | Not Active | 4.64 µM | 3.68 µM | 4.8 µM |
| CS(=O)(=O)c1ccc(C2=C(c3ccccc3)C(=O)OC2)cc1 [ROFECOXIB] | Not Active | Not Active | Not Active | Not Active | Not Active | Not Active | Not Active | Not Active | Not Active | Not Active | Not Active | – | – | – |
| Cc1cnc(NC(=O)C2=C(O)c3ccccc3S(=O)(=O)N2C)s1 [MELOXICAM] | Not Active | Not Active | Not Active | Not Active | Not Active | Not Active | Not Active | Not Active | Not Active | Not Active | Not Active | – | – | – |
| C1CCN2C[C@@H]3C[C@@H](CN4CCCC[C@@H]34)[C@H]2C1 [SPARTEINE] | Not Active | Not Active | Not Active | Not Active | Not Active | Not Active | Not Active | Not Active | Not Active | Not Active | Not Active | – | – | – |
| CO[C@@H]1[C@@H](OC)[C@H](C)[C@@](O)(CC(=O)O)O[C@H]1[C@H](C)[C@H]1O[C@@]2(CC[C@@](C)([C@H]3CC[C@@](C)([C@@H]4O[C@@H]([C@H]5O[C@](C)(O)[C@H](C)C[C@@H]5C)C[C@@H]4O[C@@H]4C[C@H](OC)[C@@H](OC)[C@H](C)O4)O3)O2)C[C@H](O)[C@H]1C.N [MADURAMICIN] | Not Active | Not Active | Not Active | Not Active | Not Active | Not Active | Not Active | Not Active | Not Active | Not Active | Not Active | – | – | – |
| CC[C@@]1(O)C(=O)OCc2c1cc1n(c2=O)Cc2cc3c(CN(C)C)c(O)ccc3nc2-1 [TOPOTECAN] | Not Active | Not Active | Not Active | Not Active | Not Active | Not Active | Not Active | Not Active | Not Active | Not Active | Not Active | – | – | – |
| C#C[C@]1(O)CC[C@H]2[C@@H]3[C@H](C)CC4=C(CCC(=O)C4)[C@H]3CC[C@@]21C [TIBOLONE] | Not Active | Not Active | Not Active | Not Active | Not Active | Not Active | Not Active | Not Active | Not Active | Not Active | Not Active | – | – | – |
| CNCCCC12CCC(c3ccccc31)c1ccccc12 [MAPROTILINE] | – | Not Active | Not Active | – | – | – | – | – | – | – | – | – | – | – |
| CN(C)CCC=C1c2ccccc2COc2ccccc21 [DOXEPIN] | – | Not Active | Not Active | – | – | – | – | – | – | – | – | – | – | – |
| CCC(C)(C)C(=O)O[C@H]1C[C@@H](C)C=C2C=C[C@H](C)[C@H](CC[C@@H]3C[C@@H](O)CC(=O)O3)[C@H]21 [SIMVASTATIN] | Not Active | – | Not Active | Not Active | Not Active | Not Active | Not Active | Not Active | Not Active | Not Active | Not Active | – | – | – |
| CN1C[C@H](CNC(=O)OCc2ccccc2)C[C@@H]2c3cccc4c3c(cn4C)C[C@H]21 [METERGOLINE] | – | Not Active | Not Active | Not Active | Not Active | Not Active | Not Active | Not Active | Not Active | Not Active | Not Active | – | – | – |
